Where two headings read alike, the source gives them in different places.
Experiments:
[1] = system: P. falciparum multidrug-resistant W2 strain; experiment: SYBR Green I fluorescence assay, asexual parasite proliferation, W2 strain; type: cell-based; conditions: for Resistance Index (RI) = IC50 for W2/IC50 for NF54: W2 vs NF54
[2] = Single-point metabolic stability, rat liver microsomes; type: in vitro ADME
[3] = Single-point metabolic stability, mouse liver microsomes; type: in vitro ADME
[4] = Single-point metabolic stability, human liver microsomes; type: in vitro ADME
P. berghei = conditions: murine P. berghei, after a single oral dose; ref François et al., 1997c; cited from earlier work
HepG2 cells = experiment: Lactate dehydrogenase; conditions: for Selectivity Index (SI) = EC50 for HepG2/IC50 for NF54: HepG2 vs NF54
[5] = Solubility, miniaturised shake-flask method; type: physicochemical; conditions: PBS pH 6.5, 24 h at 25 °C, HPLC-DAD, unit from abstract
Lactate dehydrogenase = conditions: human, Cytotoxicity EC50, HepG2, HepG2, LDH leakage, mean ± SEM, n ≥ 2
[6] = Plasmodium falciparum, W2, 96 h, read-out: Inhibition of parasite proliferation IC50, W2, multidrug-resistant W2, 96 h drug pressure, mean ± SEM, n ≥ 2

COc1cc(C)c(-c2ccc(O)c3c2C[C@@H](C)N[C@@H]3C)c2cccc(O)c12 (single isomer, unassigned) [Dioncophylline C (2a), dioncophylline C]
Resistance Index (RI) = IC50 for W2/IC50 for NF54 [1]: 2.9
IC50 ([1]; read-out: Inhibition of parasite proliferation IC50, W2, multidrug-resistant W2, 96 h drug pressure, mean ± SEM, n ≥ 2): 0.112 ± 0.01 µM
% Remaining after 30 min, Rat ([2]; 1 μM, rat liver microsomes 0.4 mg/ml, 30 min, 37 °C): 95%
Microsomal clearance, Rat ([2]; in vitro intrinsic clearance, rat liver microsomes): <11.6 µL/min/mg
% Remaining after 30 min, Mouse ([3]; 1 μM, mouse liver microsomes 0.4 mg/ml, 30 min, 37 °C): 95%
Microsomal clearance, Mouse ([3]; in vitro intrinsic clearance, mouse liver microsomes): <11.6 µL/min/mg
% Remaining after 30 min, Human ([4]; 1 μM, human liver microsomes 0.4 mg/ml, 30 min, 37 °C): 94%
Microsomal clearance, Human ([4]; in vitro intrinsic clearance, human liver microsomes): <11.6 µL/min/mg
Parasitaemia decreased (P. berghei): 99.6%
Selectivity Index (SI) = EC50 for HepG2/IC50 for NF54 (HepG2 cells): 552.6
EC50 (HepG2 cells; read-out: Cytotoxicity EC50, HepG2, HepG2, LDH leakage, mean ± SEM, n ≥ 2): 21.2 ± 4 µM
Solubility PBS (pH 6.5) [5]: 170 μM

CCN(CC)CCCC(C)Nc1ccnc2cc(Cl)ccc12 (centres unmarked) [Chloroquine, reference compound]
IC50 [1, 6]: 0.382 ± 0.09 µM
Resistance Index (RI) = IC50 for W2/IC50 for NF54 [1]: 29.5
EC50 (Lactate dehydrogenase): 37 ± 4.5 µM
Selectivity Index (SI) = EC50 for HepG2/IC50 for NF54 (HepG2 cells): 2855.4

COc1cc(CO)c(-c2ccc3c(c2O)[C@@H](C)N[C@H](C)C3)c2cccc(O)c12 [Dioncopeltine A (5), dioncopeltine A]
IC50 [1, 6]: 0.304 ± 0.06 µM
Resistance Index (RI) = IC50 for W2/IC50 for NF54 [1]: 38.1
remaining at 0.5 h, 1 μM ([2]; male, IGS, rat, liver microsomes, % Remaining after 30 min, Rat, 1 μM, rat liver microsomes 0.4 mg/ml, 30 min, 37 °C): > 99%
remaining at 0.5 h, 1 μM ([3]; male, CD1, mouse, liver microsomes, % Remaining after 30 min, Mouse, 1 μM, mouse liver microsomes 0.4 mg/ml, 30 min, 37 °C): < 7%
remaining at 0.5 h, 1 μM ([4]; both, human, liver microsomes, % Remaining after 30 min, Human, 1 μM, human liver microsomes 0.4 mg/ml, 30 min, 37 °C): 98%
EC50 (Lactate dehydrogenase): 39 ± 13.1 µM
Selectivity Index (SI) = EC50 for HepG2/IC50 for NF54 (HepG2 cells): 4890.8

Reference: publication PMC7270141 (International Journal for Parasitology: Drugs and Drug …, 2020)
